Experiment: Relaxivity measurement (T1 by inversion recovery spin echo in aqueous phantoms, Varian 9.4T MRI system)
Assay type: physicochemical
Settings: 25° C., in H2O
Procedure: Relaxivity measurement and MRI were conducted on a Varian 9.4T MRI system (Palo Alto, Calif., USA). T1 was measured by inversion recovery spin echo in aqueous phantoms with concentrations 0.4, 0.2 0.1, 0.05, 0.025, 0.0125 and 0.00625 mM Gd. In vivo study was conducted on Wistar rats (male, weight 320-340 g) under 2% isoflurane anesthesia. CAs were injected (dosage: 0.04 mmol Gd/kg body weight) through tail vein. T1-weighted images were acquired every 6.4 s for 48 min with T1-weighted gradient echo sequence (TR/TE=50/3 ms, flip-angle=20 degree, resolution=[…], thickness=2 mm).

Row | relaxivity r1 [mM⁻¹ s⁻¹] | Compound
1 | 3.9 | O=C([O-])CN1CCN(CC(=O)[O-])CCN(CC(=O)O)CCN(CC(=O)[O-])CC1.[Gd+3] [Gd-DOTA]
2 | 4.1 | O=C([O-])CN(CCN(CC(=O)[O-])CC(=O)O)CCN(CC(=O)[O-])CC(=O)O.[Gd+3] [Gd-DTPA]

— patent US8911710B2, “Intravascular contrast agents” (Agency for Science, Technology and Research, priority 2008, dated 2014)
